Here are results for three compounds from patent US8921414B2, “Spiroketals” (EcoBiotics Ltd, priority 2005, dated 2014).

One data set relates to DU145 prostate cancer. The data set can be described thus: Cell growth inhibition (Table 22), DU145. The conditions noted are these: Homo sapiens, DU-145; read-out: IC50 (drug dose which inhibits cell growth by 50%) DU145. The data set is classed as cell-based. How it is done:
(§1) The isolated compounds were tested against a number of human and non-human cancer cell lines. The human tumor cell lines were: MCF-7, MDA-MB-231 and T47D, breast cancer; DU145 and PC3, prostate cancer; CI80-13S, ovarian cancer; MM96L, D04, SkMel5, MM418c5 melanoma; HT29, colon cancer; K562 and HL60, leukemia. Mouse cell lines were the B16 mouse melanoma and LK2 UV-induced squamous cell carcinoma (SCC). Neonatal foreskin fibroblasts (NFF) were used as normal control cells. Cells were cultured at 37° C. in 5% carbon dioxide/air, in RPMI 1640 medium containing 10% fetal calf serum.

The next data set concerns melanoma MM96L. Put plainly: Additional in vitro activity: antitumor activity, MM96L. The data set is classed as cell-based, human. The following applies: concentration with activity.
The test system of data set [1] is NS1 murine myeloma cell line. Put plainly: CyTOX (Cy) cytotoxicity bioassay. It counts as cell-based. The conditions noted are these: weight of chemical in last well with activity; real value may be lower. The source says: CyTOX (alternatively referred to herein as Cy) is a microtitre plate bioassay use to identify potential antitumor actives. CyTOX is a chromogenic bioassay with broad application to a wide range of tumor and non-tumor cell lines. […] CyTOX features a liquid media into which the test compound has been incorporated together with a novel chromogen. As the cells grow and divide the chromogen is metabolised from purple in a single step process to a colourless metabolite. CyTOX is routinely undertaken using NS1 murine myeloma cell line as a guide to mammalian cell toxicity. Briefly, in CyTOX the cells were applied to the media containing the test chemical and allowed to grow for 72 hours. The assay was monitored at 24, 48 and 72 hours and the active wells identified.

Another data set deals with prostate DU145. Put plainly: Additional in vitro activity: antitumor activity, DU145. It counts as cell-based, human. The conditions noted are these: concentration with activity.
For data set [2], the system named is Neonatal foreskin fibroblasts (NFF). Put plainly: Cell growth inhibition (Table 22), NFF. The data set is classed as cell-based. The following applies: Homo sapiens, read-out: IC50 (drug dose which inhibits cell growth by 50%) NFF. On the procedure:
as §1

The subject of the next data set is K562 leukemia. Put plainly: Cell growth inhibition (Table 22), K562. The conditions noted are these: Homo sapiens, read-out: IC50 (drug dose which inhibits cell growth by 50%) K562. The data set is classed as cell-based. On the procedure: as §1
In another data set the test system is leukemia K562. Put plainly: Additional in vitro activity: antitumor activity, K562. The data set is classed as cell-based, human. The following applies: concentration with activity.
For the next data set, the system named is breast MCF-7. Put plainly: Additional in vitro activity: antitumor activity, MCF-7. The conditions noted are these: concentration with activity. It counts as cell-based, human.
A further data set concerns CI80-13S ovarian cancer. Put plainly: Cell growth inhibition (Table 22), C180-13S. The data set is classed as cell-based. The following applies: Homo sapiens, read-out: IC50 (drug dose which inhibits cell growth by 50%) C180-13S. On the procedure: as §1
Another data set deals with MCF-7 breast cancer. The data set can be described thus: Cell growth inhibition (Table 22), MCF7. It counts as cell-based. The conditions noted are these: Homo sapiens, read-out: IC50 (drug dose which inhibits cell growth by 50%) MCF7. How it is done: as §1
Another data set has as its system Drosophila melanogaster. The data set can be described thus: DipteraTOX insecticidal bioassay. Also on record: key: A value of A in DipG, Dip P or Dip H represents very active; a value of P represents active. The following applies: 250 μg per mL in agar. How it is done:
DipteraTOX. DipteraTOX is referred to herein as DipG, DipP and DipH. DipG represents no grazing of larva. DipP represents no pupae formation and Dip H represents no hatching of flies. A value of A in DipG, Dip P or Dip H represents very active and a value of P represents active. In DipteraTox the fly eggs are applied to the surface of an agar matrix containing 250 μg per mL of the test chemical and allowed to hatch, develop and pupate for a period up of two weeks. The assay was monitored at two discrete times to determine the extent of grazing of the agar matrix at Week 1 and the presence of adult flies at Week 2. […] Drosophila melanogaster was utilised for this assay.

The test system of another data set is MM96L melanoma. The data set can be described thus: Cell growth inhibition (Table 22), MM96L. The data set is classed as cell-based. The following applies: Homo sapiens, read-out: IC50 (drug dose which inhibits cell growth by 50%) MM96L. On the procedure: as §1
The next data set has as its system ovarian C180-13S. The data set can be described thus: Additional in vitro activity: antitumor activity, C180-13S. It counts as cell-based, human. The conditions noted are these: concentration with activity.
The next data set has as its system melanoma MM418c5. Put plainly: Additional in vitro activity: antitumor activity, MM418c5. The data set is classed as cell-based, human. The following applies: concentration with activity.
The test system of data set [3] is normal human fibroblasts (NFF). The data set can be described thus: Additional in vitro activity: cytotoxic activity, NFF. The following applies: concentration with activity. It counts as cell-based.
In a further data set the test system is Bacillus subtilis. The data set can be described thus: ProTOX (Bs) antibacterial bioassay. The following applies: weight of chemical in last well with activity; real value may be lower. It counts as cell-based. The text has this:
ProTOX, (alternatively referred to herein as Bs) is an antibacterial bioassay, broadly applicable to most aerobic and anaerobic bacteria. The bioassay features a solid phase agar base into which the test compound has been incorporated together with a chromogen. As the bacteria multiply in the well, the chromogen is metabolised from blue in a two-step process to a colourless compound. Compounds with potent bactericidal activity inhibit bacterial metabolism of the chromogen while bacteriostatic compounds induce limited metabolism as indicated by an intermediate pink colour. ProTOX is broadly applicable to a range of gram-positive and gram-negative bacteria under aerobic and microaerophilic conditions. ProTOX assays were carried out using Bacillus subtilis. Briefly, in ProTOX, the bacteria (24 hour broth) were applied to the surface of an agar matrix containing the test sample and allowed to grow for 48 h. The assay was monitored at 24 and 48 hours and the active wells noted. Known antibiotics yield consistent colour transitions which are concentration and time dependent. These patterns provided an important guide to the early recognition of interesting characteristics.

In another data set the test system is Giardia spp. Put plainly: TriTOX (Gi) anti-protozoan bioassay. It counts as cell-based. The conditions noted are these: weight of chemical in last well with activity; real value may be lower. The text has this: TriTOX (alternatively referred to herein as Gi) is a microtitre plate based chromogenic bioassay for the screening of anti-protozoan activity of pathogenic, anaerobic/microaerophilic protozoans for example Giardia spp. and Trichomonas spp. The bioassays are run under anaerobic conditions and features species specific chromogens. […] Aliquots of each concentration(s) are applied to the wells of 96-well microtitre plates and diluted with media. […] The lowest concentration at which the compound is active is noted as the minimum inhibitory concentration (MIC). Additionally, microscopic inspection is carried out to identify any patterns of morphological change that may be consistent with a type of toxicity and therefore mode of action. Giardia spp. was utilized for this assay.

The subject of another data set is tumor cells. Put plainly: Cell arrest, comparison of ethacrynic acid with EBI-23. The data set is classed as cell-based.

As usually defined, the IC50 is the concentration needed to halve the response being measured.

Values after ≈ are worked out from the molar mass of the structure shown.

For the compound `CCCCCCCCCCCCCC(CC1CC(O)CC2(CC3OC(=O)C=CC3O2)O1)OC(C)=O` (stereo not shown) [EBI-25], the IC50 came to 1 µg/mL (≈ 2.02 µM) in the data set on DU145 prostate cancer; 3 µg/mL (≈ 6.06 µM) in data set [2]; 6.1 µg/mL (≈ 12.3 µM) in the data set on K562 leukemia; 5 µg/mL (≈ 10.1 µM) in the data set with CI80-13S ovarian cancer; 0.34 µg/mL (≈ 0.687 µM) with MCF-7 breast cancer; 1.6 µg/mL (≈ 3.23 µM) in the data set on MM96L melanoma. Also, the “antitumor activity against melanoma MM96L at” value in the data set with melanoma MM96L was found to be 10 µg/mL. In addition, in data set [1], the “Cy LD99” value was 1.6 µg/mL. In addition, the “antitumor activity against prostate DU145 at” value in the data set on prostate DU145 came out at 30 µg/mL. Further, the “antitumor activity against leukemia K562 at” value in the data set with leukemia K562 was 30 µg/mL. Moreover, in the data set on breast MCF-7, the “antitumor activity against breast MCF-7 at” value is 300 µg/mL. Moreover, the “DipH (no hatching of flies)” value in the data set with Drosophila melanogaster was “P”. Besides, the “antitumor activity against ovarian C180-13S at” value with ovarian C180-13S was 3 µg/mL. Moreover, the “antitumor activity against melanoma MM418c5 at” value with melanoma MM418c5 worked out at 10 µg/mL. In addition, the “cytotoxic activity against normal human fibroblasts (NFF) at” value in data set [3] was 30 µg/mL. Further, in the data set on Bacillus subtilis, the “Bs LD99” value is 25 µg/mL. Also, the “Gi LD99” value in the data set with Giardia spp. was determined as 50 µg/mL.
As for `CCCCCCCCCCCCCC(CC1C=CCC2(CC3OC(=O)C=CC3O2)O1)OC(C)=O` (stereo not shown) [EBI-42], the concentration for half-maximal inhibition (IC50) is over 10 µg/mL with DU145 prostate cancer; over 10 µg/mL in [2]; over 10 µg/mL with K562 leukemia; 6 µg/mL (≈ 12.6 µM) with CI80-13S ovarian cancer; 6 µg/mL (≈ 12.6 µM) in the data set with MCF-7 breast cancer; 6 µg/mL (≈ 12.6 µM) with MM96L melanoma. In addition, the “antitumor activity against melanoma MM96L at” value in the data set on melanoma MM96L came to 10 µg/mL. Moreover, the “antitumor activity against ovarian C180-13S at” value with ovarian C180-13S turned out to be 10 µg/mL. For the same compound, the “cytotoxic activity against normal human fibroblasts (NFF) at” value in data set [3] was over 10 µg/mL.
On to `C=C(CC)C(=O)c1ccc(OCC(=O)O)c(Cl)c1Cl` [ethacrynic acid], for which, in the data set with tumor cells, the “fold higher concentration than EBI-23 to achieve cell arrest” value is 10 fold and the “selectivity against tumor cells” value was “no selectivity”.
